Experimental data: ChEMBL document CHEMBL1145498, “A systematic interaction map of validated kinase inhibitors with Ser/Thr kinases” (Proc Natl Acad Sci U S A, 2007)

Each compound was assayed against Calcium/calmodulin-dependent protein kinase type 1D (Homo sapiens) (UniProt Q8IU85).

| ΔTm | Compound |
| --- | --- |
| 1 °C | O=c1cc(-c2ccc(O)cc2)oc2cc(O)cc(O)c12 |
| 2.1 °C | O=C1c2ccccc2-c2n[nH]c3cccc1c23 |

What follows are compounds tested against Calcium/calmodulin-dependent protein kinase type II subunit delta (Homo sapiens) (UniProt Q13557).

| ΔTm | Compound |
| --- | --- |
| 0.7 °C | O=c1cc(-c2ccc(O)cc2)oc2cc(O)cc(O)c12 |
| -0.5 °C | O=C1c2ccccc2-c2n[nH]c3cccc1c23 |

What follows are compounds tested against Calcium/calmodulin-dependent protein kinase type II subunit gamma (Homo sapiens) (UniProt Q13555).
Chain of Calcium/calmodulin-dependent protein kinase type II subunit gamma (Homo sapiens) (Q13555 whole entry): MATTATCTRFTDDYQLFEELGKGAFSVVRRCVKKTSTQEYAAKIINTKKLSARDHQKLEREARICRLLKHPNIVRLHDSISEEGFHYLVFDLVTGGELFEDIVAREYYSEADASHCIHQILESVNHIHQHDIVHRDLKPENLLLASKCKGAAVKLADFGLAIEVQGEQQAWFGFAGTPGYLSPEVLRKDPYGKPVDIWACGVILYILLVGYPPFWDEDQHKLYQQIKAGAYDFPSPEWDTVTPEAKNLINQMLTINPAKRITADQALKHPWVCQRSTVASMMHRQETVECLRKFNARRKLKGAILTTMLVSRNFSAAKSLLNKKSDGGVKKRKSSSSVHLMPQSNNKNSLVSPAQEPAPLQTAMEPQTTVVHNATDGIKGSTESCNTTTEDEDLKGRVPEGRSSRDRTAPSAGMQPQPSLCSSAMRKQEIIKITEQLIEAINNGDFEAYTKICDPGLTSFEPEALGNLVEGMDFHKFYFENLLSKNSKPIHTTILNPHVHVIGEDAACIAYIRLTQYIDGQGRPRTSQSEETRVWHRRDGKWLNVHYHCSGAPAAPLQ

| ΔTm | Compound |
| --- | --- |
| -11.5 °C | O=c1cc(-c2ccc(O)cc2)oc2cc(O)cc(O)c12 |
| 0.8 °C | O=C1c2ccccc2-c2n[nH]c3cccc1c23 |

Each compound was assayed against Cyclin-dependent kinase 2 (Homo sapiens, UniProt P24941).

| ΔTm | Compound |
| --- | --- |
| 2.3 °C | O=c1cc(-c2ccc(O)cc2)oc2cc(O)cc(O)c12 |
| 2.6 °C | O=C1c2ccccc2-c2n[nH]c3cccc1c23 |

Each compound was assayed against Dual specificity protein kinase CLK2 (Homo sapiens) (UniProt P49760).

| ΔTm | Compound |
| --- | --- |
| 2.8 °C | O=c1cc(-c2ccc(O)cc2)oc2cc(O)cc(O)c12 |
| 3 °C | O=C1c2ccccc2-c2n[nH]c3cccc1c23 |

Each compound was assayed against Death-associated protein kinase 3 (Homo sapiens) (UniProt O43293).
Chain of Death-associated protein kinase 3 (Homo sapiens) (O43293 whole entry, looked up): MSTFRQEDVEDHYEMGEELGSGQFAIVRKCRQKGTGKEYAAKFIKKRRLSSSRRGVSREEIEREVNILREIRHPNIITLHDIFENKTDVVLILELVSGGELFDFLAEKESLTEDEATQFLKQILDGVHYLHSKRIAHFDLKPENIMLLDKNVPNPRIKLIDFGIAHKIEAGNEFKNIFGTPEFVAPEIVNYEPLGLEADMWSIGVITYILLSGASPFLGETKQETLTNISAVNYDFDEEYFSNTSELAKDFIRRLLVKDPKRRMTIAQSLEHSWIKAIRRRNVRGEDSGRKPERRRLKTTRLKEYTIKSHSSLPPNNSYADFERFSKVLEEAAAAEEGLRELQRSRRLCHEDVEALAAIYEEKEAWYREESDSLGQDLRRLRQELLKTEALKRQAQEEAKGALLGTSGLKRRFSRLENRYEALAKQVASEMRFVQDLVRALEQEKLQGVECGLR

| Compound | ΔTm |
| --- | --- |
| O=c1cc(-c2ccc(O)cc2)oc2cc(O)cc(O)c12 | 3.5 °C |
| O=C1c2ccccc2-c2n[nH]c3cccc1c23 | 3.4 °C |

What follows are compounds tested against T1, Myotonin-protein kinase (Homo sapiens) (UniProt Q09013).
T1 sequence (whole entry): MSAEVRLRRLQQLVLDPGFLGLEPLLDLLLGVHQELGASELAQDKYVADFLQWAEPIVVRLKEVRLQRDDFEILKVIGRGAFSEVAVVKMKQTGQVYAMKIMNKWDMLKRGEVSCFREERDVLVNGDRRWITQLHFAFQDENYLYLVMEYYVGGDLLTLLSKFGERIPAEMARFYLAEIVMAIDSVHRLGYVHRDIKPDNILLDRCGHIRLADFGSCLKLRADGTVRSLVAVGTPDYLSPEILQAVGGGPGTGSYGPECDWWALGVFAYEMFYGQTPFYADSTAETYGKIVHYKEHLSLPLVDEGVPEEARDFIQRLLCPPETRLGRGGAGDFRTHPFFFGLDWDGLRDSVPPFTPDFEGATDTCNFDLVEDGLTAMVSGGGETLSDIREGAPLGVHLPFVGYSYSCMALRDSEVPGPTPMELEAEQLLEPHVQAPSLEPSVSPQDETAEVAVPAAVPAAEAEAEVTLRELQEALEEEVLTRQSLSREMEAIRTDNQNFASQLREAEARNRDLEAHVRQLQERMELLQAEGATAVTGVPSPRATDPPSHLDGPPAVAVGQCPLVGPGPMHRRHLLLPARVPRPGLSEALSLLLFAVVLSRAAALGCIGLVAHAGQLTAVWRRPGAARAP

| ΔTm | Compound |
| --- | --- |
| 0.6 °C | O=c1cc(-c2ccc(O)cc2)oc2cc(O)cc(O)c12 |
| 0.3 °C | O=C1c2ccccc2-c2n[nH]c3cccc1c23 |

Each compound was assayed against Dual specificity mitogen-activated protein kinase kinase 2 (Homo sapiens, UniProt P36507).
Chain of Dual specificity mitogen-activated protein kinase kinase 2 (P36507 whole entry): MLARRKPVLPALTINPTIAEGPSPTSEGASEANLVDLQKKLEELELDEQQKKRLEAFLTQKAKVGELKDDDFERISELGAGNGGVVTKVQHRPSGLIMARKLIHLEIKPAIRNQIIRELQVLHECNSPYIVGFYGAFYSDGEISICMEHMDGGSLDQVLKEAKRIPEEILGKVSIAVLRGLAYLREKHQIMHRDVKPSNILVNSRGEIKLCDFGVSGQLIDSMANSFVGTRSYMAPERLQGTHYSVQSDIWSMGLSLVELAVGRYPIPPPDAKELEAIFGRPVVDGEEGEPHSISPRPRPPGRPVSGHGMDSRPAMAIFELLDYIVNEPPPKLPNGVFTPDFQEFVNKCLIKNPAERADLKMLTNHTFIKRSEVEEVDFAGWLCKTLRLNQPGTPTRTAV

| ΔTm | Compound |
| --- | --- |
| 0.7 °C | O=c1cc(-c2ccc(O)cc2)oc2cc(O)cc(O)c12 |
| 1.3 °C | O=C1c2ccccc2-c2n[nH]c3cccc1c23 |

What follows are compounds tested against Mitogen-activated protein kinase 11 (Homo sapiens, UniProt Q15759).
Chain of Mitogen-activated protein kinase 11 (Q15759 whole entry): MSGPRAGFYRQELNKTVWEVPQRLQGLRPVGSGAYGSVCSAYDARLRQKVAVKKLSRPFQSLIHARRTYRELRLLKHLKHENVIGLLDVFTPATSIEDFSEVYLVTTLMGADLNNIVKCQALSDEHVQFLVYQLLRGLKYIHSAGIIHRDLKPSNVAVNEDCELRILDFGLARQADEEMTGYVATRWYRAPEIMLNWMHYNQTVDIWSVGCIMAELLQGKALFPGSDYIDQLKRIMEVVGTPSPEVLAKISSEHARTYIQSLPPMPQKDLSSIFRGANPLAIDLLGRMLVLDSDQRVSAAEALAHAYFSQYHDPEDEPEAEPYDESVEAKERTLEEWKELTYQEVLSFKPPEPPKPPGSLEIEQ

| ΔTm | Compound |
| --- | --- |
| 1.7 °C | O=c1cc(-c2ccc(O)cc2)oc2cc(O)cc(O)c12 |
| 0.8 °C | O=C1c2ccccc2-c2n[nH]c3cccc1c23 |

What follows are compounds tested against Serine/threonine-protein kinase 26 (Homo sapiens) (UniProt Q9P289).
Chain of Serine/threonine-protein kinase 26 (Homo sapiens) (Q9P289 2-416 limits assumed): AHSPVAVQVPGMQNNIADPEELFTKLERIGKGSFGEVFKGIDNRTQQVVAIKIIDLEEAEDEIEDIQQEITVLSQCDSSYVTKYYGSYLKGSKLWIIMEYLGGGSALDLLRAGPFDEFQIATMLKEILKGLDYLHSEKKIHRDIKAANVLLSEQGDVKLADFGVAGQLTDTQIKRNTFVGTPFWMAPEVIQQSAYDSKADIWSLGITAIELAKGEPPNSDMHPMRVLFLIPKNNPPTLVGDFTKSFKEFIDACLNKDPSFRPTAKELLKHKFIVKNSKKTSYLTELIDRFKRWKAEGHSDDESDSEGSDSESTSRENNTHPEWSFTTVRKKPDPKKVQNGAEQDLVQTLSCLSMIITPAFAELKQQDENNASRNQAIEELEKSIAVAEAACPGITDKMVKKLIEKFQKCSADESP

| ΔTm | Compound |
| --- | --- |
| 3.1 °C | O=c1cc(-c2ccc(O)cc2)oc2cc(O)cc(O)c12 |
| 2.1 °C | O=C1c2ccccc2-c2n[nH]c3cccc1c23 |

The compounds below were run against Serine/threonine-protein kinase OSR1 (Homo sapiens) (UniProt O95747).
Chain of Serine/threonine-protein kinase OSR1 (Homo sapiens) (O95747 2-527 limits assumed): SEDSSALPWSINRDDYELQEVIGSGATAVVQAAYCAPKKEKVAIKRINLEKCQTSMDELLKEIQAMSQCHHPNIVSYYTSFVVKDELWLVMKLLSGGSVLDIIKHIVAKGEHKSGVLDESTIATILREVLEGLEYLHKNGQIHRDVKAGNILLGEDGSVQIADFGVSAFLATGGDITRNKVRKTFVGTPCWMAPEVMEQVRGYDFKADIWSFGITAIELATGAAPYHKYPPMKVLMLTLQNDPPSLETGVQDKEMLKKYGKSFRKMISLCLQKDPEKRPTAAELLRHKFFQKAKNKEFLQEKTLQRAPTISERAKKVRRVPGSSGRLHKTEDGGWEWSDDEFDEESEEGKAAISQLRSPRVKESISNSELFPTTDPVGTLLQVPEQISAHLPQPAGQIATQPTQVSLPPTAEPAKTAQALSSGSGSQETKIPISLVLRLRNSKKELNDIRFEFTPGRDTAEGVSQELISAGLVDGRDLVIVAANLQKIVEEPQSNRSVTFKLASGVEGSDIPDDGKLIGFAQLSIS

| ΔTm | Compound |
| --- | --- |
| 2.2 °C | O=c1cc(-c2ccc(O)cc2)oc2cc(O)cc(O)c12 |
| 3.2 °C | O=C1c2ccccc2-c2n[nH]c3cccc1c23 |

What follows are compounds tested against Serine/threonine-protein kinase PAK 5 (Homo sapiens) (UniProt Q9P286).
Chain of Serine/threonine-protein kinase PAK 5 (Homo sapiens) (Q9P286 whole entry, looked up): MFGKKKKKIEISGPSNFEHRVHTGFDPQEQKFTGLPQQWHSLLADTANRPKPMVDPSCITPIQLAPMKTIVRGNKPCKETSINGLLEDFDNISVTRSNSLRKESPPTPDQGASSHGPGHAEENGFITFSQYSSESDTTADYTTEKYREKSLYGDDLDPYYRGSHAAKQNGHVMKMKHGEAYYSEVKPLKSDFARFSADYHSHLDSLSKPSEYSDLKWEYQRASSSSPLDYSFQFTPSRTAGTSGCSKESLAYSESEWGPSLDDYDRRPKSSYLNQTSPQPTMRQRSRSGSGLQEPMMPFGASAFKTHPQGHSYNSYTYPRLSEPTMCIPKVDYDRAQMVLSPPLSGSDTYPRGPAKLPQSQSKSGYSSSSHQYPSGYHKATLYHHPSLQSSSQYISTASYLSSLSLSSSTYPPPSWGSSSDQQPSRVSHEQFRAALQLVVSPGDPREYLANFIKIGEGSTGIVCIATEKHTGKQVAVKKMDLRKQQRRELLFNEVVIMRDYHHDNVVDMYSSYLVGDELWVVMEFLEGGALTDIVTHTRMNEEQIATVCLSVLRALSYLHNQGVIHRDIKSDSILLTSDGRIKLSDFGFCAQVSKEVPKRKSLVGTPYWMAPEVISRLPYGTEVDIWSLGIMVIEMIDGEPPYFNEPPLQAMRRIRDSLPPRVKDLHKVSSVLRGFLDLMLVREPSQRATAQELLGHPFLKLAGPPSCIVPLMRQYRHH

| ΔTm | Compound |
| --- | --- |
| 0.4 °C | O=c1cc(-c2ccc(O)cc2)oc2cc(O)cc(O)c12 |
| 1.1 °C | O=C1c2ccccc2-c2n[nH]c3cccc1c23 |

These compounds were tested against Serine/threonine-protein kinase pim-1 (Homo sapiens) (UniProt P11309).
Chain of Serine/threonine-protein kinase pim-1 (Homo sapiens) (P11309 whole entry, looked up): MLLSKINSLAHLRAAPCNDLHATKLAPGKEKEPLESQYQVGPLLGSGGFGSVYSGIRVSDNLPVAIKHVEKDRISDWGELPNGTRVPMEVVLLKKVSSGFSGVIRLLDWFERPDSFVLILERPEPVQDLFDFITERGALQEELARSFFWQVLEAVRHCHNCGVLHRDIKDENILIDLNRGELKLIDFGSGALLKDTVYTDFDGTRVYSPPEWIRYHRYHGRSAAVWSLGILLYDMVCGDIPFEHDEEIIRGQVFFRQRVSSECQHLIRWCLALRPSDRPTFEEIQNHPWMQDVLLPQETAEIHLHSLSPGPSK

| ΔTm | Compound |
| --- | --- |
| 3.7 °C | O=c1cc(-c2ccc(O)cc2)oc2cc(O)cc(O)c12 |
| 3.6 °C | O=C1c2ccccc2-c2n[nH]c3cccc1c23 |

The compounds below were run against Serine/threonine-protein kinase pim-2 (Homo sapiens, UniProt Q9P1W9).
Chain of Serine/threonine-protein kinase pim-2 (Q9P1W9 whole entry, looked up): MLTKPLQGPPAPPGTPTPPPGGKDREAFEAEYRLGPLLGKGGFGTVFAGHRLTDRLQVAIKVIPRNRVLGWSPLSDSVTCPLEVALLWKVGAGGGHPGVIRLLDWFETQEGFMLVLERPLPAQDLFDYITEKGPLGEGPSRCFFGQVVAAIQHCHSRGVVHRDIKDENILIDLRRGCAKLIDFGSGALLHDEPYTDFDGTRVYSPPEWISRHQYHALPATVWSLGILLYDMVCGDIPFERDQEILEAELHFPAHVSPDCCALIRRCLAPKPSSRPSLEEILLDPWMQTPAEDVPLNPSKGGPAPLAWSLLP

| ΔTm | Compound |
| --- | --- |
| 3.8 °C | O=c1cc(-c2ccc(O)cc2)oc2cc(O)cc(O)c12 |
| 3.6 °C | O=C1c2ccccc2-c2n[nH]c3cccc1c23 |

These compounds were tested against Serine/threonine-protein kinase pim-3 (Homo sapiens) (UniProt Q86V86).

| ΔTm | Compound |
| --- | --- |
| 4.6 °C | O=c1cc(-c2ccc(O)cc2)oc2cc(O)cc(O)c12 |
| 4.8 °C | O=C1c2ccccc2-c2n[nH]c3cccc1c23 |

These compounds were tested against Ribosomal protein S6 kinase alpha-3 (Homo sapiens) (UniProt P51812).

| ΔTm | Compound |
| --- | --- |
| 2.4 °C | O=c1cc(-c2ccc(O)cc2)oc2cc(O)cc(O)c12 |
| 7 °C | O=C1c2ccccc2-c2n[nH]c3cccc1c23 |

What follows are compounds tested against T2, Serine/threonine-protein kinase 17A (Homo sapiens) (UniProt Q9UEE5).
T2 sequence (whole entry): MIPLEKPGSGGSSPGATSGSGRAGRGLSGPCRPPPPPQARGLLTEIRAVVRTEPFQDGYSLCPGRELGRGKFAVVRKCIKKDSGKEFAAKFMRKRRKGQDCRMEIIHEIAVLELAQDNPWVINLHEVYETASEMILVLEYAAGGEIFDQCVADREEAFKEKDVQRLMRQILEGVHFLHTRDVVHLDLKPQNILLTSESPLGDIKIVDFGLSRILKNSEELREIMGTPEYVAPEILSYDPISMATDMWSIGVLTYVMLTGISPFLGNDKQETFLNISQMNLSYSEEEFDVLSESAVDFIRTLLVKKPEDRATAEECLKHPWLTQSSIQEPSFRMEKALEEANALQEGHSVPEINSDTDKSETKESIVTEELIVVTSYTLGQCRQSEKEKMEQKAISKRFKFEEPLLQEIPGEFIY

| ΔTm | Compound |
| --- | --- |
| 7.3 °C | O=c1cc(-c2ccc(O)cc2)oc2cc(O)cc(O)c12 |
| 10 °C | O=C1c2ccccc2-c2n[nH]c3cccc1c23 |

Target: Serine/threonine-protein kinase 26 (Homo sapiens) (UniProt Q9P289)
Remark: another data set of the same source

| ΔTm | Compound |
| --- | --- |
| 2.1 °C | O=c1cc(-c2ccc(O)cc2)oc2cc(O)cc(O)c12 |
| 3.3 °C | O=C1c2ccccc2-c2n[nH]c3cccc1c23 |

Each compound was assayed against T3, Lymphokine-activated killer T-cell-originated protein kinase (Homo sapiens) (UniProt Q96KB5).
T3 sequence (whole entry): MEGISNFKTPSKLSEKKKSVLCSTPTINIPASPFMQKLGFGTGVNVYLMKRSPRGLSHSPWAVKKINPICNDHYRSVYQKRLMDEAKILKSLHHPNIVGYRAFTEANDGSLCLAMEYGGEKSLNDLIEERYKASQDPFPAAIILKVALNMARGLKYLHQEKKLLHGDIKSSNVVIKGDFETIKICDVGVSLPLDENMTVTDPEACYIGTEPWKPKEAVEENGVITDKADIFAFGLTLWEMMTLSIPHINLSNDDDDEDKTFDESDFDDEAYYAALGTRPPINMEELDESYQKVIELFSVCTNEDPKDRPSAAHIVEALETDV

| Compound | ΔTm |
| --- | --- |
| O=c1cc(-c2ccc(O)cc2)oc2cc(O)cc(O)c12 | 0.5 °C |
| O=C1c2ccccc2-c2n[nH]c3cccc1c23 | 0.8 °C |

The compounds below were run against T4, Serine/threonine-protein kinase VRK1 (Homo sapiens) (UniProt Q99986).
T4 sequence (whole entry): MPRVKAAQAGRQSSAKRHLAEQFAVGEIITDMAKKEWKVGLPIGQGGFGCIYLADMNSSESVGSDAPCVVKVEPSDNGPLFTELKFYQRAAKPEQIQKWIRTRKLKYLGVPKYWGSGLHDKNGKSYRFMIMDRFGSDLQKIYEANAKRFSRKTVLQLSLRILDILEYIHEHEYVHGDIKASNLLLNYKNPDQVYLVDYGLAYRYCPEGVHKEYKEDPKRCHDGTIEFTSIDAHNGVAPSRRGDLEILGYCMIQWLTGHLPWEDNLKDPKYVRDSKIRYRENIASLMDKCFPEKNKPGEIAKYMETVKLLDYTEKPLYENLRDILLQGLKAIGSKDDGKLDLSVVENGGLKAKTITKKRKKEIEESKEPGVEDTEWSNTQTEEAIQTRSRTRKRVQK

| ΔTm | Compound |
| --- | --- |
| 0.2 °C | O=c1cc(-c2ccc(O)cc2)oc2cc(O)cc(O)c12 |
| 0 °C | O=C1c2ccccc2-c2n[nH]c3cccc1c23 |

Each compound was assayed against Serine/threonine-protein kinase 25 (Homo sapiens) (UniProt O00506).
Chain of Serine/threonine-protein kinase 25 (Homo sapiens) (O00506 whole entry, looked up): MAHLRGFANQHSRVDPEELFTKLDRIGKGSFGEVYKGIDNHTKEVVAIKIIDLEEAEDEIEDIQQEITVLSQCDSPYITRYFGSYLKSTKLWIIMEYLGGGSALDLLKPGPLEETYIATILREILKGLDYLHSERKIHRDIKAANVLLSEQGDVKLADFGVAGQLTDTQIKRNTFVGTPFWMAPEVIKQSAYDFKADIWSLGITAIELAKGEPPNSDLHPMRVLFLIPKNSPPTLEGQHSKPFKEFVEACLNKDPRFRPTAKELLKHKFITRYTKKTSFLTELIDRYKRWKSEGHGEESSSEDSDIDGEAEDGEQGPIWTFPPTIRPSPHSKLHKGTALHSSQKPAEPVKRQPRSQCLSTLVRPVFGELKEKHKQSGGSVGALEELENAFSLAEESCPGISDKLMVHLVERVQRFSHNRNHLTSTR

| ΔTm | Compound |
| --- | --- |
| 4.9 °C | O=c1cc(-c2ccc(O)cc2)oc2cc(O)cc(O)c12 |
| 4.8 °C | O=C1c2ccccc2-c2n[nH]c3cccc1c23 |
